In publication PMC10571957, “αV-Integrin-Dependent Inhibition of Glioblastoma Cell Migration, Invasion and Vasculogenic Mimicry by the uPAcyclin Decapeptide” (Cancers, 2023):
Where “and” joins values, the source holds several entries; their conditions need not be identical. Identical values can stand only once. Square brackets hold non-standard residues; d marks the D form. NMeV = CN[C@H](C(=O)O)C(C)C

Legend:
[1] = system: U87-MG cells (αV integrin); assay: FITC-uPAcyclin receptor binding/competition, U87-MG; set-up: species or system human; conditions: vitronectin 200 µM, anti-αV 5 µg/mL, anti-α2 1 µg/mL
Experimental: The U87-MG, U251-MG, and U138-MG cell lines were harvested and acid-treated, as described. Then, 2 × 10^6 cells/sample were exposed for 30 min at 4 °C to uPAcyclin or S-uPAcyclin at the indicated concentrations, or with the following antibodies: VNR147 monoclonal anti-αV integrin (Chemicon Int. Inc., Temecula, CA, USA), polyclonal anti-αV (Millipore, Burlington, MA, USA), monoclonal anti-α2 (Chemicon Int. Inc., Temecula, CA, USA), polyclonal anti-actin (Sigma-Aldrich, St. Louis, MO, USA), monoclonal anti-GAPDH (Abcam, Cambridge, UK), and purified vitronectin (VN, Corning, Glendale, AZ, USA). The cells were subsequently incubated with 50 nM FITC-uPAcyclin for 2 h at 4 °C, as described. At the end of incubation, the cells were washed and the cell surface-associated fluorescence was determined using a fluorimeter (VICTOR^TM X3-PerkinElmer, Waltham, MA, USA). All binding assays were performed three times, with duplicate samples, and analyzed as described in Section 2.11.
Figure 2 αV expression of U87-MG, U251-MG, and U138-MG GBM cells and specific binding of FITC-uPAcyclin. (A) U87-MG, U251-MG, U138-MG, HEK-293, and HEK-293/αV total cell lysates were subjected to Western blotting and probed using polyclonal anti-αV or polyclonal anti-actin as loading control. (B) A total of 2 × 10^6 U87-MG, U251-MG, U138-MG, HEK-293/αV, or HEK-293 cells were pre-incubated for 30 min at 4 °C with 500 nM uPAcyclin and further exposed to 50 nM FITC-uPAcyclin for 2 h at 4 °C. At the end of the incubation, the unbound material was washed and cell-associated FITC-uPAcyclin was quantitated by a fluorimeter. The net value of cell-surface-associated fluorescence, corresponding to the specific binding, is shown. (C) A total of 2 × 10^6 U87-MG, U251-MG, and U138-MG cells were pre-incubated for 30 min at 4 °C with increasing concentrations of unlabeled uPAcyclin and then assayed for binding of FITC-uPAcyclin, for 2 h at 4 °C. Cell-surface-associated fluorescence, as percentage of the samples […], is shown. (D) U87-MG cells were pre-incubated with uPAcyclin (1 pM, 100 nM), scrambled uPAcyclin (S-uPAcyclin, 1 pM and 100 nM)), vitronectin (200 µM), anti-αv polyclonal (anti-αV Pclonal, 5 µg/mL) or monoclonal (anti-αV MoAb, 5 µg/mL) or anti-α2 monoclonal (anti-α2 MoAb, 1 µg/mL), polyclonal anti-actin, and monoclonal anti GAPDH. Then, cells were treated as in B (* p-value < 0.05; *** p-value < 0.001).

[2] = system: gynecologic malignancies; set-up: method as in PMID 18760451, PMID 22446624; conditions: ref [66],[67], cited from earlier work
[3] = system: mice; set-up: method as in PMID 12183425; conditions: ref [65]; cited from earlier work
[4] = system: aggressive and recurrent meningiomas; conditions: combination with an mTOR inhibitor; ref [72]; cited from earlier work
Source text: As far as translation into clinics is concerned, it is worth mentioning that small peptides, such as uPAcyclin, are generally non-immunogenic and cost-effective to produce, and some of them have already entered clinical trials. […] Nevertheless, small peptides need to reach molecular targets to accomplish their effects. Thus, they often depend on physiological transports and ...

[5] = system: GBM models; conditions: cited from earlier work
Source text: (§1) Since the identification of the integrin-binding domain (RGD) in fibronectin/vitronectin, RGD-containing peptides and derived compounds have been developed. […] In contrast, other trials have not shown cilengitide to be better in terms of progression-free survival or overall survival than the standard treatment ...

[6] = system: patients with advanced glioblastoma; conditions: cited from earlier work
Source text: as §1

vitronectin: purified vitronectin (Corning)
competition with FITC-uPAcyclin binding, in words ([1]; U87-MG, S-uPAcyclin 1 pM and 100 nM): only at a high concentration | FITC-uPAcyclin binding, single values ([1]; T-test sheet, single replicates of all EXPTs): 42 and 50 and 45 and 47

Ac-K^136PSSPPEE^143-NH2 [Å6]
tolerability ([2]; phase I, gynecologic malignancies): well tolerated | disease progression ([2]; phase II): delayed disease progression in the treated individuals | anti-angiogenetic and anti-metastatic activity [3]: clearcut anti-angiogenetic and anti-metastatic activities in mice

octreotide
efficacy and tolerability [4]: effective and well tolerated

cilengitide: known αVβ3/αVβ5 integrin inhibitor (cyclo(RGD[dF][NMeV]); chains of the INN, looked up)
effect in GBM models ([5]; ref [51]): cytotoxic, anti-angiogenetic, and anti-invasive effect in GBM models | tumor angiogenesis at lower doses ([5]; suggested reason for failure in GBM patients, ref [54]): detrimental stimulation of tumor angiogenesis at lower doses | overall survival effect ([6]; patients with advanced glioblastoma, ref [52]): seemed to suggest a positive effect on overall survival | progression-free or overall survival vs standard treatments ([6]; ref [53]): have not shown cilengitide to be better in terms of progression-free survival or overall survival than the standard treatments
